The record followed here is patent US10604523B2, “1-aryl-4-methyl-[1,2,4]triazolo[4,3-a]quinoxaline derivatives” (Janssen Pharmaceutica NV, priority 2011, dated 2020).

SMILES strings stand for the structures. Some results are limits rather than exact numbers.

For experiment [1], the target named is T1, Human recombinant PDE2A (hPDE2A) (Homo sapiens, UniProt O00408).
T1 construct: made in house; host or cells: Sf9 insect cells (baculovirus)
Kind of experiment: In vitro assay PDE2A (SPA, 3H-cGMP). The experiment is classed as biochemical. The following applies: read-out: pIC50 PDE2 (converted).

Experiment [2] deals with T2, Rat recombinant PDE10A (rPDE10A2) (Rattus norvegicus, UniProt Q9QYJ6).
T2 construct: made in house; host or cells: Sf9 insect cells (baculovirus)
T2 sequence (Q9QYJ6 1-794): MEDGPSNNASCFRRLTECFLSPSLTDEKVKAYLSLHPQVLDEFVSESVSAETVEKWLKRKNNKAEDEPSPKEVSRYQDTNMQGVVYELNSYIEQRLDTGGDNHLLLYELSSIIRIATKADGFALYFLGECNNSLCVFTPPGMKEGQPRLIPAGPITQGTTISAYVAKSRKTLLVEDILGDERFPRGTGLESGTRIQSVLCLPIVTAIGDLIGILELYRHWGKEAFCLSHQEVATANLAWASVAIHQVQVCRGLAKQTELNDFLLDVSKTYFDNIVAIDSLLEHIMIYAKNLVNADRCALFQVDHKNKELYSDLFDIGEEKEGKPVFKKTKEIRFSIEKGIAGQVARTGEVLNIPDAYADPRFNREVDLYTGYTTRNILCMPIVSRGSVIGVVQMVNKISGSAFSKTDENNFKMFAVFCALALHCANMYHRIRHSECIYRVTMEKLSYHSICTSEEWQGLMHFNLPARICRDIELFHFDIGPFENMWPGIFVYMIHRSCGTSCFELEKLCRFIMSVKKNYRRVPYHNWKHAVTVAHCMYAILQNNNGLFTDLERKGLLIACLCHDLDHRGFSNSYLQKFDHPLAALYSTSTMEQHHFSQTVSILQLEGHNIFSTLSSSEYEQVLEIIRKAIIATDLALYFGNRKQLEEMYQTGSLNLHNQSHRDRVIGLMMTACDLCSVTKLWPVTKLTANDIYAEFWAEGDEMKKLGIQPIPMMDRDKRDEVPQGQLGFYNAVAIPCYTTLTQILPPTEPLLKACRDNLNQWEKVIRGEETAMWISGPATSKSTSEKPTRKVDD
Kind of experiment: In vitro assay PDE10A (SPA, 3H-cAMP). The conditions noted are these: read-out: PIC50 PDE10 (converted). It counts as biochemical.

T1 sequence (O00408 whole entry): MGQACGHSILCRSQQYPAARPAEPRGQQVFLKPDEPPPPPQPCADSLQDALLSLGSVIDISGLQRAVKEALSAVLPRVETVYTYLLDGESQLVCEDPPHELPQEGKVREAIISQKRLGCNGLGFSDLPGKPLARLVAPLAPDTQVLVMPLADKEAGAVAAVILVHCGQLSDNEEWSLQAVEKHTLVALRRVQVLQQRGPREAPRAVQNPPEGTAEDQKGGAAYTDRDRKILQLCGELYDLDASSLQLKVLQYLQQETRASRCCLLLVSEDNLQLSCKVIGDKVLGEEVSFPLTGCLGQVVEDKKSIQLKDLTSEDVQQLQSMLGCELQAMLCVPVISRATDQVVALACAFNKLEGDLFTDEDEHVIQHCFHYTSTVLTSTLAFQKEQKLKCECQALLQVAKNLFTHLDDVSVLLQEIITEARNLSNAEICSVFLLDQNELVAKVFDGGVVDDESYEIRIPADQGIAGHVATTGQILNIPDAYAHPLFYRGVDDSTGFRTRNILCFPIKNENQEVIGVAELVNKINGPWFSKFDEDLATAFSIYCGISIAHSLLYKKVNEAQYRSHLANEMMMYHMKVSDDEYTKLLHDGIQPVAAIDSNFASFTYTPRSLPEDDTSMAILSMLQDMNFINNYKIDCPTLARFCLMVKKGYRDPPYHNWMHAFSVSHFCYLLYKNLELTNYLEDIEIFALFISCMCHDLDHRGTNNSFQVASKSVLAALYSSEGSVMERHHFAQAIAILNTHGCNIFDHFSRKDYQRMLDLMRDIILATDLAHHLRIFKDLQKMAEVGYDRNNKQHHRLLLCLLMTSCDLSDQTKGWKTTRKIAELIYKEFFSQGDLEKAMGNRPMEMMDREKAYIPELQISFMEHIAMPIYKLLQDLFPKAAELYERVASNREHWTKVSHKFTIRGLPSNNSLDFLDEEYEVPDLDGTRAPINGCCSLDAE

In the case of `COCCc1cncc(-c2nnc3c(C)nc4ccc(CN5CCOCC5)cc4n23)c1` [Compound B-198], the IC50 in experiment [1] was 89.1 nM; in experiment [2] it was 5890 nM.
For the molecule `Cc1nc2ccc(CN3CCN(C)CC3)cc2n2c(-c3cc(OC(C)C)ccc3Cl)nnc12` [Compound B-170], the IC50 is 102 nM in experiment [1] and 3630 nM in experiment [2].
In the same order, the values of `COc1ccc2nc(C)c3nnc(-c4ccccc4OC(F)(F)F)n3c2c1` [Compound B-164] are 69.2 nM and 2510 nM.
In the same order, the values of `Cc1cncc(-c2nnc3c(C)nc4ccc(C(F)(F)F)cc4n23)c1` [Compound B-162] are 67.6 nM and 871 nM.
On to `CCCOc1ccc(Cl)c(-c2nnc3c(C)nc4ccc(CN5CCC(F)CC5)cc4n23)c1` [Compound B-135], for which the values for the IC50 in experiment [1] and in experiment [2] were 30.2 nM and 589 nM, respectively.
Turning to `CCCCOc1cncc(-c2nnc3c(C)nc4ccc(CNCC5CC5)cc4n23)c1` [Compound B-156], the values for the IC50 in experiment [1] and in experiment [2] were 61.7 nM and 7940 nM, respectively.
Turning to `CCOCc1cncc(-c2nnc3c(C)nc4ccc(CN5CCOCC5)cc4n23)c1` [Compound B-194], the IC50 in experiment [1] is 29.5 nM; in experiment [2], 7760 nM.
As to `Cc1nc2ccc(CN3CCCC3)cc2n2c(-c3cncc(OCC4CC4)c3)nnc12` [Compound B-208], the IC50 is 275 nM in experiment [1] and greater than 10000 nM in experiment [2].
On to `Cc1nc2ccc(N(C)C)cc2n2c(-c3ccccc3Cl)nnc12` [Compound B-87], for which the values for the IC50 in experiment [1] and in experiment [2] were 11.2 nM and 26.9 nM, respectively.
For `Cc1nc2ccc(C(=O)OCc3ccccc3)cc2n2c(-c3ccccc3)nnc12` [Compound B-8, Benzyl 4-methyl-1-phenyl[1,2,4]triazolo[4,3-a]quinoxaline-8-carboxylate] the same measures were 20.4 nM and 380 nM.
On to `CCCCOc1ccc(Cl)c(-c2nnc3c(C)nc4ccc(CN5CCC(F)CC5)cc4n23)c1` [Compound B-132], for which the IC50 in experiment [1] was 29.5 nM; in experiment [2], 1780 nM.
Regarding `CCCCOc1ccc(Cl)c(-c2nnc3c(C)nc4ccc(OCCc5cccnc5)cc4n23)c1` [Compound B-130], the IC50 in experiment [1] was 28.8 nM; in experiment [2], 977 nM.
In the same order, the values of `CCCCOc1ccc(Cl)c(-c2nnc3c(C)nc4ccc(N5CCN(C)CC5)cc4n23)c1` [Compound B-26, 1-(5-Butoxy-2-chlorophenyl)-4-methyl-8-(4-methylpiperazin-1-yl) [1,2,4]triazolo-[4,3-a]quinoxaline] are 17.4 nM and 1260 nM.
For `CCCCOc1cncc(-c2nnc3c(C)nc4ccc(Br)cc4n23)c1` [Compound B-7, 8-Bromo-1-(5-butoxypyridin-3-yl)-4-methyl[1,2,4]triazolo[4,3-a]quinoxaline] the same measures were 18.6 nM and 3390 nM.
Regarding `Cc1nc2ccc(COc3ccccc3)cc2n2c(-c3ccccc3)nnc12` [Compound B-98], the IC50 is 14.5 nM in experiment [1] and 191 nM in experiment [2].
Regarding `CCNC(=O)c1ccc2c(c1)nc(C)c1nnc(-c3cccnc3C)n12` [Compound B-169], the values for the IC50 in experiment [1] and in experiment [2] were 102 nM and 2820 nM, respectively.
In the same order, the values of `CCCOc1ccc(Cl)c(-c2nnc3c(C)nc4ccc(CN5CCN(C)CC5)cc4n23)c1` [Compound B-137] are 33.1 nM and 1000 nM.
On to `CCNC(=O)c1ccc2nc(C)c3nnc(-c4cccnc4OC)n3c2c1` [Compound B-123], for which the IC50 in experiment [1] is 27.5 nM; in experiment [2], 417 nM.
As to `CCCOc1ccc(Cl)c(-c2nnc3c(C)nc4ccc(CN5CCC(O)CC5)cc4n23)c1` [Compound B-129], the IC50 in experiment [1] was 28.8 nM; in experiment [2], 891 nM.
On to `CCNC(c1ccc2nc(C)c3nnc(-c4ccccc4Cl)n3c2c1)C(F)(F)F` (centres unmarked) [Compound B-64], for which the IC50 is 5.75 nM in experiment [1] and 30.2 nM in experiment [2].
For `COc1ccc(Cl)c(-c2nnc3c(C)nc4ccc(Br)cc4n23)c1` [Compound B-69] the same measures were 6.17 nM and 77.6 nM.
Take `Cc1ccncc1-c1nnc2c(C)nc3ccc(C(=O)C4CC4)cc3n12` [Compound B-24, Cyclopropyl [4-methyl-1-(4-methylpyridin-3-yl) [1,2,4]triazolo[4,3-a]quinoxalin-8-yl]methanone]: the IC50 is 39.8 nM in experiment [1] and 525 nM in experiment [2].
Turning to `COC1CCCN(Cc2ccc3nc(C)c4nnc(-c5ccccc5Cl)n4c3c2)C1` (centres unmarked) [Compound B-86], the IC50 in experiment [1] was 11 nM; in experiment [2], 38 nM.
Take `COc1ccc2nc(C)c3nnc(-c4cnccc4C)n3c2c1` [Compound B-173]: the IC50 is 135 nM in experiment [1] and 977 nM in experiment [2].
In the same order, the values of `CCNC(=O)c1ccc2nc(C)c3nnc(-c4ccccn4)n3c2c1` [Compound B-181] are 240 nM and 5500 nM.
In the same order, the values of `Cc1nc2ccc(Br)cc2n2c(-c3cncc(OCC4CC4)c3)nnc12` [Compound B-125] are 27.5 nM and 3090 nM.
For `Cc1nc2ccc(C(=O)OCCc3ccccc3)cc2n2c(-c3ccccc3)nnc12` [Compound B-122] the same measures were 27.5 nM and 331 nM.
On to `Cc1nc2ccc(Br)cc2n2c(-c3cccc(Cl)c3Cl)nnc12` [Compound B-166], for which the IC50 is 95.5 nM in experiment [1] and 282 nM in experiment [2].
Turning to `COCCNC(=O)c1ccc2nc(C)c3nnc(-c4ccccc4Cl)n3c2c1` [Compound B-37], the figures for the IC50 in experiment [1] and in experiment [2] were 0.631 nM and 20.4 nM, respectively.
For `CCCOc1ccc(Cl)c(-c2nnc3c(C)nc4ccc(OCCc5cccnc5)cc4n23)c1` [Compound B-116] the same measures were 24.5 nM and 513 nM.
For `CCOCc1cncc(-c2nnc3c(C)nc4ccc(CNC5CCC5)cc4n23)c1` [Compound B-213] the same measures were 372 nM and greater than 10000 nM.
As for `CCOC(=O)c1ccc2c(c1)nc(C)c1nnc(-c3ccccc3Cl)n12` [Compound B-1b, ethyl 1-(2-chlorophenyl)-4-methyl[1,2,4]triazolo[4,3-a]quinoxaline-7-carboxylate], the IC50 was 51.3 nM in experiment [1] and 447 nM in experiment [2].
Consider `Cc1nc2ccc(CN3CCC(F)CC3)cc2n2c(-c3cncc(OCC4CC4)c3)nnc12` [Compound B-199], for which the IC50 in experiment [1] was 89.1 nM; in experiment [2], 3890 nM.
For the molecule `CCCCOc1ccc(Cl)c(-c2nnc3c(C)nc4ccc(CN5CCCC5)cc4n23)c1` [Compound B-79], the figures for the IC50 in experiment [1] and in experiment [2] were 8.13 nM and 1910 nM, respectively.
Take `Cc1nc2ccc(CNC3CCC3)cc2n2c(-c3cncc(OCC4CC4)c3)nnc12` [Compound B-207]: the IC50 in experiment [1] is 240 nM; in experiment [2], greater than 10000 nM.
In the case of `CCCOc1ccc(Cl)c(-c2nnc3c(C)nc4ccc(OC[C@@H]5CCCN5)cc4n23)c1` [Compound B-161], the IC50 in experiment [1] is 60.3 nM; in experiment [2], 8710 nM.
With `Cc1nc2ccc(C(=O)C3CC3)cc2n2c(-c3ccccc3Cl)nnc12` [Compound B-144], the IC50 in experiment [1] is 4.47 nM; in experiment [2] it was 31.6 nM.
As for `Cc1nc2ccc(CN3CCOCC3)cc2n2c(-c3cncc(OCCF)c3)nnc12` [Compound B-195], the IC50 in experiment [1] is 42.7 nM; in experiment [2], 3550 nM.
On to `CCCCOc1cncc(-c2nnc3c(C)nc4ccc(CNC5CCC5)cc4n23)c1` [Compound B-155], for which the IC50 is 60.3 nM in experiment [1] and 9120 nM in experiment [2].
For `COCCCc1cncc(-c2nnc3c(C)nc4ccc(CN5CCOCC5)cc4n23)c1` [Compound B-204] the same measures were 132 nM and 8130 nM.
As for `CCCCOc1ccc(Cl)c(-c2nnc3c(C)nc4ccc(CNC5CCC5)cc4n23)c1` [Compound B-126], the results for the IC50 in experiment [1] and in experiment [2] were 28.2 nM and 2450 nM, respectively.
Take `CCC(=O)Nc1ccc2nc(C)c3nnc(-c4ccccc4Cl)n3c2c1` [Compound B-28, N-[1-(2-Chlorophenyl)-4-methyl[1,2,4]triazolo[4,3-a]quinoxalin-8-yl]propanamide]: the IC50 in experiment [1] was 2.29 nM; in experiment [2] it was 13.2 nM.
For `Cc1nc2ccc(N)cc2n2c(-c3ccccc3Cl)nnc12` [Compound B-27, 1-(2-Chlorophenyl)-4-methyl[1,2,4]triazolo[4,3-a]quinoxalin-8-amine] the same measures were 2.34 nM and 29.5 nM.
In the case of `CCNC(=O)c1ccc2c(c1)nc(C)c1nnc(-c3cncc(OC)c3)n12` [Compound B-172], the IC50 in experiment [1] was 126 nM; in experiment [2] it was 7760 nM.
For `CCCOc1ccc(Cl)c(-c2nnc3c(C)nc4ccc(CNc5cccnc5)cc4n23)c1` [Compound B-138] the same measures were 33.9 nM and 708 nM.
As to `COCCC1CN(Cc2ccc3nc(C)c4nnc(-c5ccccc5Cl)n4c3c2)CCO1` (centres unmarked) [Compound B-106], the IC50 in experiment [1] is 19.5 nM; in experiment [2], 89.1 nM.
